Test results taken from US9521847B2, “Synergistic weed control from applications of pyridine carboxylic acid herbicides and synthetic auxin herbicides and/or auxin transport inhibitors” (Dow AgroSciences LLC, priority 2014, dated 2016).

Columns and labels:
[1] = tested on: blackgrass (Alopecurus myosuroides, ALOMY); assay: Greenhouse postemergence trial, % visual injury; format: in vivo; conditions: 140 g ae/ha
[2] = tested on: spring wheat (TRZAS); assay: Small plot field trial (Canada), crop phytotoxicity (% visual injury); format: in vivo, Triticum aestivum; conditions: 560 g ae/ha alone
Description: (§1) Small plot field trials were established in Canada to evaluate efficacy and crop safety of Compound 7 with 2,4-D EHE. Trials were established as randomized complete blocks with 3-4 replicates. Individual plots were 2-3 meters (m) wide and 8-10 m long. Applications were made with backpack or tractor-mounted sprayers delivering a spray volume output of 100 liters per hectare (L/ha) using pressurized carbon dioxide (CO2) as a propellant. Compound 7 was combined with 2,4 D EHE (660 g ae/L EC formulation) and applied to spring wheat (TRZAS), and the phytotoxicity of the herbicidal compositions was measured. In addition, the efficacy of the herbicidal composition on Canadian thistle ([…], Cirsium arvense), kochia (KCHSC, Kochia scoparia), mallow (MALPU, Marva pusilla), wild buckwheat (POLCO, Polygonum convolvulus), and lady's thumb (POLPE, Polygonum persicaria) was evaluated.

[3] = tested on: kochia (KCHSC, Kochia scoparia); assay: Small plot field trial (Canada), % visual injury; format: in vivo; conditions: 560 g ae/ha alone, 46-64 DAA
Method: as §1, with “Trials” for “Small plot field trials were established in Canada to evaluate efficacy and crop safety of Compound 7 with 2,4-D EHE. Trials”, “kochia (KCHSC, Kochia” left out, “([…]” for “(MALPU, Marva”

[4] = tested on: CIRAR = Cirsium arvense (Canadian thistle); assay: Small plot field trial (Canada), % visual injury; format: in vivo; conditions: 560 g ae/ha alone, 46-64 DAA
Method: as §1, with “Trials” for “Small plot field trials were established in Canada to evaluate efficacy and crop safety of Compound 7 with 2,4-D EHE. Trials”, “kochia (KCHSC, Kochia” left out, “([…]” for “(MALPU, Marva”

[5] = tested on: MALPU = Malva pusilla (mallow); assay: Small plot field trial (Canada), % visual injury; format: in vivo; conditions: 560 g ae/ha alone, 26-33 DAA
Method: as §1, with “Trials” for “Small plot field trials were established in Canada to evaluate efficacy and crop safety of Compound 7 with 2,4-D EHE. Trials”, “kochia (KCHSC, Kochia” left out, “([…]” for “(MALPU, Marva”

[6] = tested on: wild buckwheat (POLCO, Polygonum convolvulus); assay: Small plot field trial (Canada), % visual injury; format: in vivo; conditions: 560 g ae/ha alone, 15 DAA
Method: as §1, with “Trials” for “Small plot field trials were established in Canada to evaluate efficacy and crop safety of Compound 7 with 2,4-D EHE. Trials”, “kochia (KCHSC, Kochia” left out, “([…]” for “(MALPU, Marva”

[7] = tested on: lady's thumb (POLPE, Polygonum persicaria); assay: Small plot field trial (Canada), % visual injury; format: in vivo; conditions: 560 g ae/ha alone, 14-16 DAA
Method: as §1, with “Trials” for “Small plot field trials were established in Canada to evaluate efficacy and crop safety of Compound 7 with 2,4-D EHE. Trials”, “kochia (KCHSC, Kochia” left out, “([…]” for “(MALPU, Marva”

[8] = tested on: kochia (KCHSC, Kochia scoparia); assay: Patio postemergence trial, % visual injury; format: in vivo; conditions: 280 g ae/ha alone, 20-22 d
Method: (§2) The plants were grown for 7-36 days (d) on a fenced, open-air patio. Nutrients and water were added on a regular basis.
(§3) Temperatures and photoperiods were dependent on the natural weather conditions during the trials. Weather conditions during trials were conducive for plant growth and development.

[9] = tested on: pigweed (AMARE, Amaranthus retroflexus); assay: Patio postemergence trial, % visual injury; format: in vivo; conditions: 280 g ae/ha alone, 20-22 d
Method: as §2, §3

[10] = tested on: winter wheat (TRZAW); conditions: winter wheat (Triticum aestivum), in vivo
[11] = tested on: wild radish (Raphanus raphanistrum, RAPRA); assay: Greenhouse postemergence trial, % visual injury; format: in vivo
[12] = tested on: ivyleaved speedwell (Veronica hederifolia, VERHE); assay: Greenhouse postemergence trial, % visual injury; format: in vivo; conditions: compound 1 (EC) 5 g ae/ha
[13] = tested on: turnip (Brassica rapa, BRSRR); assay: Greenhouse postemergence trial, % visual injury; format: in vivo; conditions: for % visual injury, Obs: BRSRR, compound 1 (EC) 5 g ae/ha
[14] = tested on: barnyardgrass (Echinochloa crus-galli, ECHCG); assay: Greenhouse postemergence trial, % visual injury; format: in vivo
[15] = tested on: Roundup Ready rape (Brassica napus, BRSNN-RR); assay: Greenhouse postemergence trial, % visual injury; format: in vivo; conditions: compound 1 (EC) 5 g ae/ha
[16] = tested on: Indian hedge mustard (Sisymbrium orientale, SSYOR); assay: Greenhouse postemergence trial, % visual injury; format: in vivo
[17] = tested on: large crabgrass (Digitaria sanguinalis, DIGSA); assay: Greenhouse postemergence trial, % visual injury; format: in vivo; conditions: Digitaria sanguinalis, post-emergence; DIGSA, 5 g ae/ha; read-out: % visual injury, Obs
[18] = tested on: brown mustard (Brassica juncea, BRSJU); assay: Greenhouse postemergence trial, % visual injury; format: in vivo

CCCCC(CC)COC(=O)COc1ccc(Cl)cc1Cl (stereo not drawn) [2,4-D EHE, 2-ethylhexyl (2,4-dichlorophenoxy)acetate, reference compound]
% visual injury, Obs [1]: 0%
% visual injury Obs ([2]; 6-8 DAA): 3%
% visual injury Obs ([2]; 14-16 DAA): 0%
% visual injury Obs [3]: 25%
% visual injury Obs [4]: 65%
% visual injury Obs [5]: 74%
% visual injury Obs [6]: 51%
% visual injury Obs [7]: 55%
% visual injury Obs [8]: 10%
% visual injury Obs [9]: 50%
% visual injury, Obs [10]: 0%

Nc1c(F)c(-c2ccc3cc[nH]c3c2F)nc(C(=O)O)c1Cl [compound 1]
% visual injury (Obs) ([11]; compound 1 SC 2.5 g ae/ha): 13%
% visual injury (Obs) ([11]; compound 1 SC 5 g ae/ha): 13%
% visual injury (Obs) [12]: 40%
% visual injury, Obs ([13]; Table 62): 50%
% visual injury, Obs ([13]; Table 63): 50%
% visual injury (Obs) ([13]; compound 1 SC 2.5 g ae/ha): 45%
% visual injury (Obs) ([13]; compound 1 SC 5 g ae/ha): 62%
% visual injury, Obs ([14]; ECHCG, 5 g ae/ha): 65%
% visual injury (Obs) ([14]; compound 1 (EC) 5 g ae/ha): 65%
% visual injury, Obs ([15]; Table 62): 35%
% visual injury, Obs ([15]; Table 63): 35%
% visual injury (Obs) ([16]; compound 1 SC 2.5 g ae/ha): 13%
% visual injury (Obs) ([16]; compound 1 SC 5 g ae/ha): 20%
pest or weed control at 5 g/ha [17]: 0%
% visual injury Obs ([18]; 5 g ae/ha alone (compound 1 as EC), 20-22 d): 60%
% visual injury, Obs ([18]; BRSJU, compound 1 (EC) 5 g ae/ha, Table 62): 60%
